Reference: publication PMC3017850, “Significance of Cuscutain, a cysteine protease from Cuscuta reflexa, in host-parasite interactions” (BMC Plant Biology, 2010)
Peptide text beside a SMILES is read from it. * marks the point of attachment. pNA = O=[N+]([O-])c1ccc(N*)cc1; Cbz = O=C(OCc1ccccc1)*

System: cuscutain
Test: colorimetric release of para-nitroaniline at […] nm; Hanes-Woolf plot
Type: biochemical, Cuscuta reflexa
Details: pH 7.5; 30 °C (50 mM Tris, 300 mM NaCl) or 37 °C (0.1 M Na-citrate, 20% ethanol), both printed

N=C(N)NCCC[C@H](NC(=O)[C@H](Cc1ccccc1)NC(=O)OCc1ccccc1)C(=O)Nc1ccc([N+](=O)[O-])cc1 [Cbz-Phe-Arg-pNA] (Cbz-Phe-Arg-pNA)
Km: 393 ± 20 µM
